Source: article PMC11278161 (Marine Drugs, 2024)
*1 amine or outer side, *2 acyl side, *3 side chain or, on linkers, in order; H or OH if unused. Where a SMILES comes first, the peptide text is derived from it. Bridges are numbered along the chain shown (N, C = ends). X1 = CC[C@@]1(OC(=O)CCC(=O)NCCOCCOCCOCCn2cc(COc3cc(C[*:1])cc(C[*:2])c3)nn2)C(=O)OCc2c1cc1n(c2=O)Cc2cc3ccccc3nc2-1; X2 = CC[C@@]1(OC(=O)Cn2cc(COc3cc(C[*:1])cc(C[*:2])c3)nn2)C(=O)OCc2c1cc1n(c2=O)Cc2cc3ccccc3nc2-1

Test system: A549 cells
Settings: human

Row | Compound | IC50
1 | CC[C@H](C)[C@@H]1NC(=O)[C@H](CC(N)=O)NC(=O)[C@@H]2CCCN2C(=O)[C@H](CC(N)=O)NC(=O)[C@H](CC(N)=O)NC(=O)[C@H](C(C)C)NC(=O)[C@H](CCCNC(=N)N)NC(=O)[C@@H]2CSSC[C@H](NC(=O)CNC(=O)[C@@H](N)CO)C(=O)N[C@@H](CSCc3cc(cc(OCc4cn(CC(=O)O[C@]5(CC)C(=O)OCc6c5cc5n(c6=O)Cc6cc7ccccc7nc6-5)nn4)c3)CSC[C@@H](C(N)=O)NC1=O)C(=O)N[C@@H](CO)C(=O)N[C@@H](CC(N)=O)C(=O)N1CCC[C@H]1C(=O)N[C@@H](C)C(=O)N2 [LsIA[2,4]-8] (H-SGCCSNPACRVNNPNIC-NH2; disulfide 3-9; linker 4-17 via X2) | 216 nM
2 | CC[C@H](C)[C@@H]1NC(=O)[C@H](CC(N)=O)NC(=O)[C@@H]2CCCN2C(=O)[C@H](CC(N)=O)NC(=O)[C@H](CC(N)=O)NC(=O)[C@H](C(C)C)NC(=O)[C@H](CCCNC(=N)N)NC(=O)[C@@H]2CSSC[C@H](NC(=O)CNC(=O)[C@@H](N)CO)C(=O)N[C@@H](CSCc3cc(cc(OCc4cn(CCOCCOCCOCCNC(=O)CCC(=O)O[C@]5(CC)C(=O)OCc6c5cc5n(c6=O)Cc6cc7ccccc7nc6-5)nn4)c3)CSC[C@@H](C(N)=O)NC1=O)C(=O)N[C@@H](CO)C(=O)N[C@@H](CC(N)=O)C(=O)N1CCC[C@H]1C(=O)N[C@@H](C)C(=O)N2 [LsIA[2,4]-9] (H-SGCCSNPACRVNNPNIC-NH2; disulfide 3-9; linker 4-17 via X1) | 338 nM
